Source: patent US20080200448A1, “New Pyridine Analogues VIII 518” (ASTRAZENECA AB, priority 2007, published 2008)

Biological target: T1, P2Y12 receptor (Homo sapiens, UniProt Q9H244)
T1 construct: expressed in transfected cells; host or cells: CHO cells (membrane preparation)
Assay: Functional inhibition of 2-Me-S-ADP induced P2Y12 signalling (35S-GTPγS binding, cell membranes)
Format: biochemical
Conditions: 35S-GTPγS assay, membranes, EC80 concentration of 2-methyl-thio-adenosine diphosphate, 30° C. for 45 min; read-out: GTPγS (IC50 μM)
Outline: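 Membranes (5 μg) from P2Y12-transfected CHO cells in pH 7.4 HEPES buffer with 10 μM GDP and saponin were stimulated with an EC80 of 2-methyl-thio-ADP plus compound and ^35S-GTPγS for 45 min at 30° C. Filter-retained ^35S-GTPγS was counted, normalised between agonist and no-agonist activity, and IC50 taken from a four-parameter fit.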

T1 sequence (Q9H244 whole entry): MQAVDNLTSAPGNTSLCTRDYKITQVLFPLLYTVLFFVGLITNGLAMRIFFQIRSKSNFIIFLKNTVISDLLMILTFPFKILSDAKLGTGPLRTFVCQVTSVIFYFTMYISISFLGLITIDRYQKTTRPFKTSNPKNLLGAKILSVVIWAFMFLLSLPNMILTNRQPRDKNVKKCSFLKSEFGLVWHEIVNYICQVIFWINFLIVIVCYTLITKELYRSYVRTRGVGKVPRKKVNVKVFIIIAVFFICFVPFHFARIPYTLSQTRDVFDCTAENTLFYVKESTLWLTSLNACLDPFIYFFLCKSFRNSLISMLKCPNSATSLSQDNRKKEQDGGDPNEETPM

CCOC(=O)CSCc1nc(N2CCC(C(=O)NS(=O)(=O)Cc3ccccc3)CC2)c(C#N)cc1C(=O)OCC [Example 122, Ethyl 6-{4-[(benzylsulfonyl)carbamoyl]piperidin-1-yl}-5-cyano-2-{[(2-ethoxy-2-oxoethyl)thio]methyl}nicotinate]
IC50: 0.077 µM

CCOC(=O)c1cc(C#N)c(N2CCC(C(=O)NS(=O)(=O)Cc3ccccc3)CC2)nc1CSCC(=O)N(C)C [Example 123, Ethyl 6-{4-[(benzylsulfonyl)carbamoyl]piperidin-1-yl}-5-cyano-2-({[2-(dimethylamino)-2-oxoethyl]thio}methyl)nicotinate]
IC50: 0.057 µM

CCOC(=O)c1cc(C#N)c(N2CCC(C(=O)NS(=O)(=O)Cc3ccccc3)CC2)nc1SCC(=O)N1CCC1 [Example 124, Ethyl 2-[(2-azetidin-1-yl-2-oxoethyl)thio]-6-{4-[(benzylsulfonyl)carbamoyl]piperidin-1-yl}-5-cyanonicotinate]
IC50: 0.013 µM

CCOC(=O)c1cc(C#N)c(N2CCC(C(=O)NS(=O)(=O)Cc3ccccc3)CC2)nc1OCC(=O)N(C)C [Example 125, Ethyl 6-{4-[(benzylsulfonyl)carbamoyl]piperidin-1-yl}-5-cyano-2-[2-(dimethylamino)-2-oxoethoxy]nicotinate]
IC50: 0.065 µM

CCOC(=O)CSc1nc(N2CCC(C(=O)NS(=O)(=O)Cc3ccccc3)CC2)c(C#N)cc1C(=O)OCC [Example 126, Ethyl 6-{4-[(benzylsulfonyl)carbamoyl]piperidin-1-yl}-5-cyano-2-[(2-ethoxy-2-oxoethyl)thio]nicotinate]
IC50: 0.011 µM

CCOC(=O)c1cc(F)c(N2CCC(C(=O)NS(=O)(=O)Cc3ccccc3)CC2)nc1CN1CCCC1=O [Example 127, Ethyl 6-{4-[(benzylsulfonyl)carbamoyl]piperidin-1-yl}-5-fluoro-2-[(2-oxopyrrolidin-1-yl)methyl]nicotinate]
IC50: 0.079 µM

CCOC(=O)c1cc(C#N)c(N2CCC(C(=O)N(C)S(=O)(=O)Cc3ccccc3)CC2)nc1CN1CCCCC1=O [Example 128, Ethyl 6-{4-[(benzylsulfonyl)(methyl)carbamoyl]piperidin-1-yl}-5-cyano-2-[(2-oxopiperidin-1-yl)methyl]nicotinate]
IC50: 1.14 µM

COC(=O)c1cc(Cl)c(N2CCC(C(=O)NS(=O)(=O)Cc3ccccc3)CC2)nc1CN1CCCCC1=O [Example 129, Methyl 6-{4-[(benzylsulfonyl)carbamoyl]piperidin-1-yl}-5-chloro-2-[(2-oxopiperidin-1-yl)methyl]nicotinate]
IC50: 1.58 µM

CCCOC(=O)c1cc(F)c(N2CCC(C(=O)NS(=O)(=O)Cc3ccccc3)CC2)nc1CN1CCCC1=O [Example 130, Propyl 6-{4-[(benzylsulfonyl)carbamoyl]piperidin-1-yl}-5-fluoro-2-[(2-oxopyrrolidin-1-yl)methyl]nicotinate]
IC50: 0.122 µM
